Assay results as given in patent publication US6274715A, “Tricyclic erythromycin derivatives” (priority 1997, dated 2001).
≈ marks a conversion by molar mass, not a printed value. Like-named read-outs stand apart in the source and are kept apart here.

Experiments:
Type in all cases: cell-based
[1] = system: STAPHYLOCOCCUS AUREUS 1775; experiment: In vitro antibacterial activity, MIC, BHI agar dilution; settings: S. aureus 1775, unit assumed
[2] = system: ESCHERICHIA COLI KNK 437; settings: E. coli KNK 437, BHI agar, unit assumed
[3] = system: STAPHYLOCOCCUS AUREUS CMX 642A; experiment: In vitro antibacterial activity, MIC, BHI agar dilution; settings: S. aureus CMX 642A, unit assumed
[4] = system: STREPTOCOCCUS PYOGENES PIU 2548; experiment: as above; settings: S. pyogenes PIU 2548, unit assumed
[5] = system: KLEBSIELLA PNEUMONIAE ATCC 8045; experiment: as above
[6] = system: ENTEROBACTER AEROGENES ATCC 13048; experiment: as above
[7] = system: PROVIDENCIA STUARTII CMX 640; settings: P. stuartii CMX 640; BHI agar; unit assumed
[8] = system: STAPHYLOCOCCUS AUREUS ATCC 6538P; experiment: In vitro antibacterial activity, MIC, BHI agar dilution; settings: S. aureus ATCC 6538P, 35-37° C., 20 to 24 hours
[9] = system: PSEUDOMONAS CEPACIA 296I; experiment: as above; settings: P. cepacia 296I
[10] = system: STAPHYLOCOCCUS AUREUS NCTC10649M; experiment: as above; settings: S. aureus NCTC10649M
[11] = system: STREPTOCOCCUS PYOGENES EES61; experiment: as above; settings: S. pyogenes EES61, unit assumed
[12] = system: ESCHERICHIA COLI DC-2; experiment: as above
[13] = system: CANDIDA ALBICANS CCH 442; experiment: as above
[14] = system: M[…] ATCC 9341; experiment: as above
Procedure: (§1) Representative compounds of the present invention were assayed in vitro for antibacterial activity as follows: Twelve petri dishes containing successive aqueous dilutions of the test compound mixed with 10 mL of sterilized Brain Heart Infusion (BHI) agar (Difco 0418-01-5) were prepared. Each plate was inoculated with 1:100 (or 1:10 for slow-growing strains, such as Micrococcus and Streptococcus) dilutions of up to 32 different microorganisms, using a Steers replicator block. The inoculated plates were incubated at 35-37° C. for 20 to 24 hours. In addition, a control plate, using BHI agar containing no test compound, was prepared and incubated at the beginning and end of each test.
(§2) An additional plate containing a compound having known susceptibility patterns for the organisms being tested and belonging to the same antibiotic class as the test compound was also prepared and incubated as a further control, as well as to provide test-to-test comparability. Erythromycin A was used for this purpose.
(§3) After incubation, each plate was visually inspected. The minimum inhibitory concentration (MIC) was defmed as the lowest concentration of drug yielding no growth, a slight haze, or sparsely isolated colonies on the inoculum spot as compared to the growth control.

[15] = system: STR[…] 508; experiment: as above; settings: S. agalactiae CMX 508, unit assumed
Procedure: as §1, §2, §3

[16] = system: EN[…] ATCC 8043; experiment: as above; settings: E. faecium ATCC 8043, unit assumed
Procedure: as §1, §2, §3

[17] = system: M[…] ATCC 4698; experiment: as above; settings: M. luteus ATCC 4698, unit assumed
Procedure: as §1, §2, §3

[18] = system: ESCHERICHIA COLI SS; experiment: as above; settings: E. coli SS, unit assumed
[19] = system: PSEUDOMONAS AERUGINOSA DPHD-2862; experiment: as above; settings: P. aeruginosa DPHD-2862, unit assumed
[20] = system: MYCOBACTERIUM SMEGMATIS ATCC 114; experiment: as above; settings: M. smegmatis ATCC 114, unit assumed
[21] = system: PSEUDOMONAS AERUGINOSA DPHD-5263; experiment: as above; settings: P. aeruginosa DPHD-5263, unit assumed
[22] = system: STAPHYLOCOCCUS AUREUS A5177; experiment: as above
[23] = system: PSEUDOMONAS AERUGINOSA K799/61; experiment: as above; settings: P. aeruginosa K799/61, unit assumed
[24] = system: STAPHYLOCOCCUS EPIDERMIDIS 3519; settings: S. epidermidis 3519; BHI agar; unit assumed
[25] = system: STREPTOCOCCUS BOVIS A-5169; experiment: In vitro antibacterial activity, MIC, BHI agar dilution
[26] = system: ESCHERICHIA COLI H560; experiment: as above; settings: E. coli H560, unit assumed
[27] = system: STREPTOCOCCUS PYOGENES 930; experiment: as above
[28] = system: PSEUDOMONAS AERUGINOSA BMH10; experiment: as above
[29] = system: PSEUDOMONAS AERUGINOSA 5007; experiment: as above
[30] = system: STAPHYLOCOCCUS AUREUS CMX 553; experiment: as above
[31] = system: STAPHYLOCOCCUS AUREUS A-5278; experiment: as above; settings: S. aureus A-5278, unit assumed
[32] = system: PSEUDOMONAS AERUGINOSA K799/WT; experiment: as above; settings: P. aeruginosa K799/WT
[33] = system: ESCHERICHIA COLI JUHL; settings: E. coli JUHL; BHI agar; unit assumed
[34] = K. pneumoniae ATCC 8045, unit assumed
[35] = E. aerogenes ATCC 13048, unit assumed
[36] = C. albicans CCH 442, unit assumed
[37] = M. luteus ATCC 9341, unit assumed
[38] = P. aeruginosa BMH10, unit assumed
[39] = P. aeruginosa 5007, unit assumed
[40] = S. aureus CMX 553, unit assumed

SMILES | MIC [1] [µg/mL] | MIC [2] [µg/mL] | MIC [3] [µg/mL] | MIC [4] [µg/mL] | MIC [5, 34] [µg/mL] | MIC [6, 35] [µg/mL] | MIC [7] [µg/mL] | MIC ([8]; unit assumed) [µg/mL] | MIC ([9]; unit assumed) [µg/mL] | MIC ([10]; unit assumed) [µg/mL] | MIC [11] [µg/mL] | MIC ([12]; E. coli DC-2, unit assumed) [µg/mL] | MIC [13, 36] [µg/mL] | MIC [14, 37] [µg/mL] | MIC [15] [µg/mL] | MIC [17] [µg/mL] | MIC [20] [µg/mL] | MIC [23] [µg/mL] | MIC [24] [µg/mL] | MIC [26] [µg/mL] | other results
CC[C@H]1OC(=O)[C@H](C)C(=O)[C@H](C)[C@@H](O[C@@H]2O[C@H](C)C[C@H](N(C)C)[C@H]2O)[C@](C)(OC)C[C@@H](C)C2=NC[C@H](COCc3ccc(OC)cc3)N3C(=O)O[C@@]1(C)[C@H]3[C@H]2C [Example 62] | > 100 | 100 (≈ 127 µM) | 0.2 (≈ 0.254 µM) | 0.2 (≈ 0.254 µM) | 25 (≈ 31.7 µM) | 25 (≈ 31.7 µM) | > 100 | 0.2 (≈ 0.254 µM) | 12.5 (≈ 15.9 µM) | 0.2 (≈ 0.254 µM) | 0.1 (≈ 0.127 µM) | 50 (≈ 63.5 µM) | > 100 | 0.01 (≈ 0.0127 µM) | 0.1 (≈ 0.127 µM) | 0.02 (≈ 0.0254 µM) | 0.1 (≈ 0.127 µM) | 0.2 (≈ 0.254 µM) | 0.2 (≈ 0.254 µM) | 100 (≈ 127 µM) | MIC [16]: 0.1 µg/mL (≈ 0.127 µM); MIC [18]: 0.2 µg/mL (≈ 0.254 µM); MIC [19]: 100 µg/mL (≈ 127 µM); MIC [21]: 50 µg/mL (≈ 63.5 µM); MIC ([22]; S. aureus A5177, unit assumed): 0.2 µg/mL (≈ 0.254 µM); MIC ([25]; S. bovis A-5169, unit assumed): 0.1 µg/mL (≈ 0.127 µM); MIC ([27]; S. pyogenes 930, unit assumed): > 100 µg/mL; MIC [28, 38]: 100 µg/mL (≈ 127 µM); MIC [29, 39]: 100 µg/mL (≈ 127 µM); MIC [30, 40]: 0.2 µg/mL (≈ 0.254 µM); MIC [31]: > 100 µg/mL; MIC ([32]; unit assumed): 25 µg/mL (≈ 31.7 µM)
CC[C@H]1OC(=O)[C@H](C)C(=O)[C@H](C)[C@@H](O[C@@H]2O[C@H](C)C[C@H](N(C)C)[C@H]2O)[C@](C)(OC)C[C@@H](C)C2=NC3CN(CCCc4ccccc4)CC3N3C(=O)O[C@@]1(C)[C@H]3[C@H]2C (stereo partly shown) [Example 112] |  |  | 0.78 (≈ 0.979 µM) | 0.2 (≈ 0.251 µM) |  |  |  |  |  |  |  |  |  |  | 0.02 (≈ 0.0251 µM) | 0.2 (≈ 0.251 µM) | 0.39 (≈ 0.489 µM) | 0.78 (≈ 0.979 µM) | 0.78 (≈ 0.979 µM) | 50 (≈ 62.7 µM) | MIC ([2]; listed as Ex 112): 100 µg/mL (≈ 125 µM); MIC ([5]; K. pneumoniae ATCC 8045, listed as Ex 112, unit assumed): 100 µg/mL (≈ 125 µM); MIC ([6]; E. aerogenes ATCC 13048, listed as Ex 112, unit assumed): 100 µg/mL (≈ 125 µM); MIC ([8]; listed as Ex 112, unit assumed): 0.39 µg/mL (≈ 0.489 µM); MIC ([9]; listed as Ex 112, unit assumed): 100 µg/mL (≈ 125 µM); MIC ([10]; listed as Ex 112, unit assumed): 0.78 µg/mL (≈ 0.979 µM); MIC ([12]; E. coli DC-2, listed as Ex 112, unit assumed): > 100 µg/mL; MIC ([13]; C. albicans CCH 442, listed as Ex 112, unit assumed): 100 µg/mL (≈ 125 µM); MIC ([14]; M. luteus ATCC 9341, listed as Ex 112, unit assumed): 0.1 µg/mL (≈ 0.125 µM); MIC ([22]; S. aureus A5177, listed as Ex 112, unit assumed): 0.39 µg/mL (≈ 0.489 µM); MIC ([25]; S. bovis A-5169, listed as Ex 112, unit assumed): ≤ 0.005 µg/mL; MIC ([27]; S. pyogenes 930, listed as Ex 112, unit assumed): > 100 µg/mL; MIC ([28]; P. aeruginosa BMH10, listed as Ex 112, unit assumed): 100 µg/mL (≈ 125 µM); MIC ([29]; P. aeruginosa 5007, listed as Ex 112, unit assumed): > 100 µg/mL; MIC ([30]; S. aureus CMX 553, listed as Ex 112, unit assumed): 0.78 µg/mL (≈ 0.979 µM); MIC ([32]; listed as Ex 112, unit assumed): > 100 µg/mL
CC[C@H]1OC(=O)[C@H](C)C(=O)[C@H](C)[C@@H](O[C@@H]2O[C@H](C)C[C@H](N(C)C)[C@H]2O)[C@](C)(OC)C[C@@H](C)C2=NC(COCc3ccccc3)C(COCc3ccccc3)N3C(=O)O[C@@]1(C)[C@H]3[C@H]2C (stereo partly shown) [Example 146] | 50 (≈ 56.9 µM) | 25 (≈ 28.5 µM) | 0.39 (≈ 0.444 µM) | 0.78 (≈ 0.888 µM) | 100 (≈ 114 µM) | > 100 | 100 (≈ 114 µM) | 0.39 (≈ 0.444 µM) | 25 (≈ 28.5 µM) | 0.39 (≈ 0.444 µM) | 0.05 (≈ 0.0569 µM) | 100 (≈ 114 µM) | 50 (≈ 56.9 µM) | 0.05 (≈ 0.0569 µM) | 0.05 (≈ 0.0569 µM) | 0.2 (≈ 0.228 µM) | 0.39 (≈ 0.444 µM) | 0.78 (≈ 0.888 µM) | 0.39 (≈ 0.444 µM) | 25 (≈ 28.5 µM) | MIC [16]: 0.05 µg/mL (≈ 0.0569 µM); MIC [18]: 0.78 µg/mL (≈ 0.888 µM); MIC [19]: 100 µg/mL (≈ 114 µM); MIC [21]: 100 µg/mL (≈ 114 µM); MIC [33]: 50 µg/mL (≈ 56.9 µM); MIC ([25]; S. bovis A-5169, unit assumed): 0.05 µg/mL (≈ 0.0569 µM); MIC ([27]; S. pyogenes 930, unit assumed): 12.5 µg/mL (≈ 14.2 µM); MIC [28, 38]: 100 µg/mL (≈ 114 µM); MIC [29, 39]: 100 µg/mL (≈ 114 µM); MIC [30, 40]: 0.39 µg/mL (≈ 0.444 µM); MIC [31]: 50 µg/mL (≈ 56.9 µM); MIC ([32]; unit assumed): 100 µg/mL (≈ 114 µM)
